Results from publication PMC4552634, “A New Set of Chemical Starting Points with Plasmodium falciparum Transmission-Blocking Potential for Antimalarial Drug Discovery” (PLoS ONE, 2015).
Read-outs that look alike come from different tables or passages of the source.

What was measured:
[1] = system: P. falciparum stage V gametocytes; test: Gametocytocidal ATP bioluminescence assay (single point 5 μM and 1 μM, dose-response); format: cell-based, Plasmodium falciparum; details: for Ratio IC50 HepG2/IC50 P. falciparum: IC50 HepG2 divided by IC50 P. falciparum gametocytes
Procedure: Purified stage IV-V gametocytes were obtained as previously described [10]. Single point ATP bioluminescence assay and dose–response of positive hits was determined in accordance with the previously published protocol [10].

HepG2 cells = test: Cytotoxicity in HepG2 cells (intracellular ATP, ATPlite, 48 h); format: cell-based, human; details: HepG2 cells; IC50 per ratio column head; unit inferred
[2] = system: P. falciparum asexual stages; details: asexual stages; TCAMS data; read-out: IC50 asexual; cited from earlier work
[3] = system: P. falciparum stage V gametocytes; test: microbe, parasite or virus in culture; set-up: BacTiter-Glo ATP luminescence viability of purified stage V gametocytes in 384-well plates, per cent inhibition versus DMSO; details: Plasmodium falciparum, 48 h, read-out: % Inhibition
[4] = P. falciparum gametocytes, average, read-out: IC50 Pf Gametocytes average, IC50 (µM) average
[5] = sexual stages (gametocytes), dose-response, read-out: IC50 sexual

SMILES	Ratio IC50 HepG2/IC50 P. falciparum [1]	IC50 [1, 4] [µM]	IC50 [1, 5] [µM]	IC50 (HepG2 cells) [nM]	IC50 [2] [nM]	inhibition at 5 µM [3] [%]
CN(CCCCN)Cc1ccc(-c2ccc(Cl)cc2)cc1 [TCMDC-140123]	10	0.41	0.413	3990	882	–
CN(C)CCN(Cc1ccccc1-c1ccc(CNCCc2ccccc2)cc1)C(=O)c1ccccc1 [TCMDC-140532]	10	0.78	–	7540	1700	–
CC(C)CNCc1cccc(-c2cccc(CN(CCCN3CCN(C)CC3)C(=O)/C=C/c3ccccc3)c2)c1 [TCMDC-140541]	13	0.56	0.557	7470	926	–
CN1CCN(CCCN(Cc2cccc(-c3cccc(CNC4CCCC4)c3)c2)C(=O)/C=C/c2ccccc2)CC1 [TCMDC-140543]	9	0.8	0.805	7170	777	–
CN1CCN(CCCN(Cc2cccc(-c3ccc(CNC4CCCC4)cc3)c2)C(=O)/C=C/c2ccccc2)CC1 [TCMDC-140544]	9	0.74	0.735	6390	746	–
CC(C)CNCc1cccc(-c2cccc(CN(CCCN3CCN(C)CC3)C(=O)CCC3CCCC3)c2)c1 [TCMDC-140554]	7.58	0.6	–	4550	624	–
O=C(c1cccs1)N(Cc1cccc(-c2ccc(CNC3CCCC3)cc2)c1)C1CCN(Cc2ccccc2)CC1 [TCMDC-140567]	8	0.85	0.845	7100	1130	–
CN1CCN(CCCN(Cc2cccc(-c3ccc(CNCCc4ccccc4)cc3)c2)C(=O)c2cccs2)CC1 [TCMDC-140568]	6	0.89	–	5600	716	–
CC(C)CNCc1cccc(-c2ccccc2CN(C(=O)NCCc2ccccc2)C2CCN(Cc3ccccc3)CC2)c1 [TCMDC-140608]	<1	> 10	–	6600	1170	–
O=C(NCCc1ccccc1)N(Cc1cccc(-c2ccc(CNC3CCCC3)cc2)c1)C1CCN(Cc2ccccc2)CC1 [TCMDC-140618]	5.66	1.31	–	7420	404	–
CN(C)CCN(Cc1ccccc1-c1ccc(CNCCc2ccccc2)cc1)C(=O)NC1CCCCC1 [TCMDC-140626]	18	0.35	–	6400	906	–
CC(C)CNCc1ccc(-c2cccc(CN(C(=O)NC3CCCCC3)C3CCN(Cc4ccccc4)CC3)c2)cc1 [TCMDC-140628]	1.09	1.66	–	1810	805	–
CN(C)CCCOc1ccc(CN2CCC(c3c[nH]c4ccc(NCC5CCCCC5)cc34)CC2)cc1 [TCMDC-140737]	14	0.5	–	6800	678	–
CN1CCC(N(Cc2ccc(-c3ccc(Cl)cc3)cc2)C(=O)Cn2c(CCc3cccc(F)c3F)cc(=O)c3ccccc32)CC1 [TCMDC-141357]	2	3.43	3.43	6700	865	–
ON=C1CCc2cc(-c3cc(-c4ccc(OC5CCNCC5)cc4)oc3-c3ccncc3)ccc21 [TCMDC-141381]	28	0.27	–	7500	157	–
O=C(C1CC1c1ccccc1)N(Cc1ccc(-c2ccc(CNCCc3ccccc3)cc2)cc1)C1CCNCC1 (centres unmarked) [TCMDC-141443]	17	0.39	0.385	6700	1110	–
O=C(CC1CCCC1)N(Cc1ccc(-c2ccc(CNC3Cc4ccccc4C3)cc2)cc1)CC1CCCCN1 (centres unmarked) [TCMDC-141446]	6.45	1	1	6470	1060	–
CCN(CC)CCCNc1ncc2c(-c3ccc(NC(=O)Nc4cc(C(F)(F)F)ccc4F)cc3)nn(C)c2n1 [TCMDC-141583]	2.73	3.48	–	9500	220	–
CCN(Cc1ccc(-c2ccc(C(F)(F)F)cc2)cc1)C(=O)Cn1c(SCc2cccc(F)c2F)cc(=O)c2cc(CN3CCCCC3)ccc21 [TCMDC-141592]	1.8	2.34	2.33	4200	801	–
O=C(O)CCSSc1cccc[n+]1[O-] [TCMDC-141973]	29	0.27	–	7800	808	–
Cc1ccc2nc(C)cc(N/N=C/c3ccc([N+](=O)[O-])cc3)c2c1 [TCMDC-142070]	0.0202	9.41	–	190	793	–
Fc1ccccc1C=NNc1ccnc2ccccc12 [TCMDC-142101]	–	–	–	–	–	-64.6

SMILES	Ratio IC50 HepG2/IC50 P. falciparum [1]	IC50 [1, 4] [µM]	IC50 [1, 5] [µM]	IC50 (HepG2 cells) [nM]	IC50 [2] [nM]	inhibition at 5 µM [3] [%]
O=[N+]([O-])c1ccccc1C=NNc1ccnc2ccccc12 [TCMDC-142102]	–	–	–	–	–	-47.5
FC(F)(F)c1ccc2nccc(NN=Cc3ccc(Cl)cc3)c2c1 [TCMDC-142103]	–	–	–	–	–	1.69
Fc1ccccc1C=NNc1ccnc2ccc(C(F)(F)F)cc12 [TCMDC-142104]	–	–	–	–	–	-68.2
COc1ccc2c(NN=Cc3ccc(Cl)cc3)ccnc2c1 [TCMDC-142105]	–	–	–	–	–	-15.3
COc1cccc2c(NN=Cc3ccc(Cl)cc3)ccnc12 [TCMDC-142106]	–	–	–	–	–	-26.4
COc1cccc2c(NN=Cc3cccc(F)c3)ccnc12 [TCMDC-142107]	–	–	–	–	–	74.3
COc1ccc2c(N/N=C/c3ccc([N+](=O)[O-])cc3)ccnc2c1 [TCMDC-142108]	–	–	–	–	–	91.3
COc1cccc2c(N/N=C/c3ccc([N+](=O)[O-])cc3)ccnc12 [TCMDC-142109]	–	–	–	–	–	64
COc1ccc2nccc(NN=Cc3ccccc3)c2c1 [TCMDC-142110]	–	–	–	–	–	31.2
COc1ccc2c(NN=Cc3ccccc3)ccnc2c1 [TCMDC-142111]	–	–	–	–	–	89.4
Fc1ccc2c(NN=CC=Cc3ccccc3)ccnc2c1 [TCMDC-142112]	–	–	–	–	–	93.5
Cc1ccc2c(NN=Cc3ccc(Cl)cc3)cc(C)nc2c1 [TCMDC-142113]	–	–	–	–	–	40.7
Cc1cc(NN=Cc2ccccc2Cl)c2cccc(C)c2n1 [TCMDC-142114]	–	–	–	–	–	48.6
Cc1cc(NN=Cc2ccc(Cl)cc2)c2cccc(C)c2n1 [TCMDC-142115]	–	–	–	–	–	-40.8
COc1cccc2c(NN=Cc3ccccc3Cl)cc(C)nc12 [TCMDC-142116]	–	–	–	–	–	23.3
COc1cccc2c(NN=Cc3cccc(Cl)c3)cc(C)nc12 [TCMDC-142117]	–	–	–	–	–	27.1
COc1ccc2c(NN=Cc3ccccc3F)cc(C)nc2c1 [TCMDC-142118]	–	–	–	–	–	-19.6
COc1ccc2c(NN=Cc3ccccc3)cc(C)nc2c1 [TCMDC-142119]	–	–	–	–	–	7.88
COc1ccc2c(NN=Cc3cccc(C)n3)cc(-c3ccccc3)nc2c1 [TCMDC-142120]	–	–	–	–	–	-50.4
CN=C(Nc1c(Cl)cccc1Cl)N(C)C [TCMDC-142121]	–	–	–	–	–	5.95
Fc1ccc2nccc(NN=Cc3ccccc3Cl)c2c1 [TCMDC-142122]	–	–	–	–	–	-2.19
Fc1ccc2nccc(NN=CC=Cc3ccccc3)c2c1 [TCMDC-142123]	–	–	–	–	–	-73.4

SMILES	Ratio IC50 HepG2/IC50 P. falciparum [1]	IC50 [1, 4] [µM]	IC50 [1, 5] [µM]	IC50 (HepG2 cells) [nM]	IC50 [2] [nM]	inhibition at 5 µM [3] [%]
COc1ccc2nccc(NN=Cc3ccc(Cl)cc3)c2c1 [TCMDC-142124]	–	–	–	–	–	58.2
COc1ccc2nccc(NN=Cc3cccc(Cl)c3)c2c1 [TCMDC-142125]	–	–	–	–	–	11.8
COc1ccc2nccc(NN=Cc3ccccc3Cl)c2c1 [TCMDC-142126]	–	–	–	–	–	20.5
COc1ccc2c(NN=Cc3ccccc3Cl)ccnc2c1 [TCMDC-142127]	–	–	–	–	–	-22.2
COc1ccc2c(NN=Cc3cccc(Cl)c3)ccnc2c1 [TCMDC-142128]	–	–	–	–	–	98.7
COc1cccc2c(NN=Cc3cccc(Cl)c3)ccnc12 [TCMDC-142129]	–	–	–	–	–	91.8
COc1ccc2nccc(NN=Cc3ccccc3F)c2c1 [TCMDC-142130]	–	–	–	–	–	6.1
COc1ccc2nccc(NN=Cc3cccc(F)c3)c2c1 [TCMDC-142131]	–	–	–	–	–	82.2
COc1ccc2nccc(NN=Cc3ccc(F)cc3)c2c1 [TCMDC-142132]	–	–	–	–	–	32.1
COc1ccc2c(NN=Cc3ccccc3F)ccnc2c1 [TCMDC-142133]	–	–	–	–	–	84.6
COc1ccc2c(NN=Cc3cccc(F)c3)ccnc2c1 [TCMDC-142134]	–	–	–	–	–	99
COc1ccc2c(NN=Cc3ccc(F)cc3)ccnc2c1 [TCMDC-142135]	–	–	–	–	–	5.77
COc1ccc2nccc(NN=Cc3ccccc3[N+](=O)[O-])c2c1 [TCMDC-142136]	–	–	–	–	–	27.9
COc1ccc2nccc(NN=Cc3cccc([N+](=O)[O-])c3)c2c1 [TCMDC-142137]	–	–	–	–	–	53.9
COc1ccc2c(N/N=C/c3cccc([N+](=O)[O-])c3)ccnc2c1 [TCMDC-142138]	–	–	–	–	–	79.5
COc1ccc2nccc(NN=Cc3ccc([N+](=O)[O-])cc3)c2c1 [TCMDC-142139]	–	–	–	–	–	-3.02
COc1ccc2c(N/N=C/c3ccccc3[N+](=O)[O-])ccnc2c1 [TCMDC-142140]	–	–	–	–	–	101
COc1cccc2c(N/N=C/c3ccccc3[N+](=O)[O-])ccnc12 [TCMDC-142141]	–	–	–	–	–	90.8
COc1cccc2c(N/N=C/c3cccc([N+](=O)[O-])c3)ccnc12 [TCMDC-142142]	–	–	–	–	–	-28.6
COc1ccc2nccc(NN=CC=Cc3ccccc3)c2c1 [TCMDC-142143]	–	–	–	–	–	39
COc1ccc2c(NN=CC=Cc3ccccc3)ccnc2c1 [TCMDC-142144]	–	–	–	–	–	-5.92
